Measured values from US8431593B2, “Heteroaryl amide derivatives” (H. Lundbeck A/S, priority 2006, dated 2013).

What follows are compounds tested against T1, P2X7 receptor (Homo sapiens, UniProt Q99572) (assay: P2X7 calcium mobilization assay, high throughput, antagonist activity (Example 4A)). Conditions: not given.
T1 construct: host or cells: SH-SY5Y
T1 sequence (Q99572 1-595): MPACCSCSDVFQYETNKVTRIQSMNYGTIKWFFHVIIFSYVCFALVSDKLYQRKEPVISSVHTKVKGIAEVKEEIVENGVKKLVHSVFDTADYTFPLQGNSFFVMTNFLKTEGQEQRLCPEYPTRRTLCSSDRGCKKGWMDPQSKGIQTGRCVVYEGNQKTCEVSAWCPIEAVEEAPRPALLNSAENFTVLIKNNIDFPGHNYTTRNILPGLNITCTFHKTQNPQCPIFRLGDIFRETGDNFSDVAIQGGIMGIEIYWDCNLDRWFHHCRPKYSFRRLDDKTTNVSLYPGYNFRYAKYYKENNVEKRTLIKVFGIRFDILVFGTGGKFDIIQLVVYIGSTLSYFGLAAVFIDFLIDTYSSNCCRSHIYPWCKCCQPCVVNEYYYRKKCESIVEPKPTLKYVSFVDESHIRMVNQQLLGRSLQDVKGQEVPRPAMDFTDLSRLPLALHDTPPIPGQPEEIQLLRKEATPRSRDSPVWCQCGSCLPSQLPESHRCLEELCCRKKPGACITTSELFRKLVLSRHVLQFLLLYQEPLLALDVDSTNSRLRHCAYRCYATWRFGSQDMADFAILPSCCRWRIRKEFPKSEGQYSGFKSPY
Format: cell-based
How it was run: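 100,000 cells/well, plated day -1. Dye 1 h → rinse → compound 1 h, RT → FLIPR^TETRA Ca2+ mobilization. Max RFU minus mean negative control (no agonist); mean agonist-well max as positive control.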

| SMILES | IC50 |
| --- | --- |
| O=C(O)c1cnn(Cc2cn3c(C(=O)NCC45CC6CC(CC(C6)C4)C5)cccc3n2)c1 [Compound 203, 1-({5-[(adamantan-1-ylmethyl)carbamoyl]imi-dazo[1,2-a]pyridin-2-yl}methyl)-1H-pyrazole-4-carboxylic acid] | < 2000 nM |
| CCOC(=O)c1cnn(Cc2cn3c(C(=O)NCC45CC6CC(CC(C6)C4)C5)cccc3n2)c1 [Compound 204, ethyl 1-({5-[(adamantan-1-ylmethyl)carbamoyl]imi-dazo[1,2-a]pyridin-2-yl}methyl)-1H-pyrazole-4-carboxylate] | < 2000 nM |
| CC(C)CC(CNC(=O)c1cccc2nc(CC(=O)N3CCC4(CC3)OCCO4)cn12)c1ccccc1 (stereo not shown) [Compound 247, 2-[2-(1,4-dioxa-8-azaspiro[4.5]dec-8-yl)-2-oxoethyl]-N-(4-methyl-2-phenylpentyl)imidazo [1,2-a]pyridine-5-carboxamide] | < 2000 nM |

Same assay, conditions: SH-SY5Y cells; 50% decrease in fluorescence response to 80 μM BzATP; read-out: IC50

| SMILES | IC50 |
| --- | --- |
| CCC(=O)NCCc1cn2c(C(=O)NCC34CC5CC(CC(C5)C3)C4)cccc2n1 [Compound 201, N-(adamantan-1-ylmethyl)-2-[2-(propionylamino)eth-yl]imidazo[1,2-a]pyridine-5-carboxamide] | < 2000 nM |
| CC(=O)NCCc1cn2c(C(=O)NCC34CC5CC(CC(C5)C3)C4)cccc2n1 [Compound 202, 2-(2-acetamidoethyl)-N-(adamantan-1-ylmethyl)imidazo[1,2-a]pyridine-5-carboxamide] | < 2000 nM |
| CC(c1cn2c(C(=O)NCC34CC5CC(CC(C5)C3)C4)cccc2n1)N1CC[C@@H](N)C1 (stereo partly drawn) [Compound 205, N-(adamantan-1-ylmethyl)-2-{1-[(3R)-3-aminopyrrolidin-1-yl]ethyl}imidazo[1,2-a]pyridine-5-carboxamide] | < 2000 nM |
| Nc1nnn(Cc2cn3c(C(=O)NCC45CC6CC(CC(C6)C4)C5)cccc3n2)n1 [Compound 206, N-(adamantan-1-ylmethyl)-2-[(5-amino-2H-tetrazol-2-yl)methyl]imidazo[1,2-a]pyridine-5-carboxamide] | < 2000 nM |
| Nc1nnnn1Cc1cn2c(C(=O)NCC34CC5CC(CC(C5)C3)C4)cccc2n1 [Compound 207, N-(adamantan-1-ylmethyl)-2-[(5-amino-1H-tetrazol-1-yl)methyl]imidazo[1,2-a]pyridine-5-carboxamide] | < 2000 nM |
| Nc1ccn(Cc2cn3c(C(=O)NCC45CC6CC(CC(C6)C4)C5)cccc3n2)n1 [Compound 208, N-(adamantan-1-ylmethyl)-2-[(3-amino-1H-pyrazol-1-yl)methyl]imidazo[1,2-a]pyridine-5-carboxamide] | < 2000 nM |
| Nc1ccnn1Cc1cn2c(C(=O)NCC34CC5CC(CC(C5)C3)C4)cccc2n1 [Compound 209, N-(adamantan-1-ylmethyl)-2-[(5-amino-1H-pyrazol-1-yl)methyl]imidazo[1,2-a]pyridine-5-carboxamide] | < 2000 nM |
| Cc1ccn(Cc2cn3c(C(=O)NCC45CC6CC(CC(C6)C4)C5)cccc3n2)n1 [Compound 210, N-(adamantan-1-ylmethyl)-2-[(3-methyl-1H-pyrazol-1-yl)methyl]imidazo[1,2-a]pyridine-5-carboxamide] | < 2000 nM |
| O=C(NCC12CC3CC(CC(C3)C1)C2)c1cccc2nc(Cn3ccccc3=O)cn12 [Compound 211, N-(adamantan-1-ylmethyl)-2-[(2-oxopyridin-1(2H)-yl)methyl]imidazo[1,2-a]pyridine-5-carboxamide] | < 2000 nM |

Same assay, conditions: fluorescence response of cells exposed to 80 μM 2′(3′)-O-(4-benzoyl-benzoyl)adenosine 5′-triphosphate; Example 4A; read-out: IC50

| SMILES | IC50 |
| --- | --- |
| CCNC(=O)Cc1cn2c(C(=O)NCC(CC(C)C)c3ccccc3)cccc2n1 (stereo not shown) [Compound 220, 2-[2-(ethylamino)-2-oxoethyl]-N-(4-methyl-2-phenylpentyl) imidazo [1,2-a]pyridine-5-carboxamide] | < 2000 nM |
| CC(C)CC(CNC(=O)c1cccc2nc(CC(=O)NCC3CC3)cn12)c1ccccc1 (stereo not shown) [Compound 222, 2-{2-[(cyclopropylmethyl)amino]-2-oxoethyl}-N-(4-methyl-2-phenylpentyl) imidazo [1,2-a]pyridine-5-carboxamide] | < 2000 nM |
| CC(C)CNC(=O)Cc1cn2c(C(=O)NCC(CC(C)C)c3ccccc3)cccc2n1 (stereo not shown) [Compound 223, 2-[2-(isobutylamino)-2-oxoethyl]-N-(4-methyl-2-phenylpentyl) imidazo [1,2-a]pyridine-5-carboxamide] | < 2000 nM |
| CC(C)CC(CNC(=O)c1cccc2nc(CC(=O)NC3CCCC3)cn12)c1ccccc1 (stereo not shown) [Compound 224, 2-[2-(cyclopentylamino)-2-oxoethyl]-N-(4-methyl-2-phenylpentyl) imidazo [1,2-a]pyridine-5-carboxamide] | < 2000 nM |
| CC(C)CC(CNC(=O)c1cccc2nc(CC(=O)NCC(C)(C)C)cn12)c1ccccc1 (stereo not shown) [Compound 225, 2-{2-[(2,2-dimethylpropyl)amino]-2-oxoethyl}-N-(4-methyl-2-phenylpentyl) imidazo [1,2-a]pyridine-5-carboxamide] | < 2000 nM |
| CC(C)CC(CNC(=O)c1cccc2nc(CC(=O)NCC(F)(F)F)cn12)c1ccccc1 (stereo not shown) [Compound 229, N-(4-methyl-2-phenylpentyl)-2-{2-oxo-2-[(2,2,2-trifluoroethyl)amino]ethyl}imidazo[1,2-a]pyridine-5-carboxamide] | < 2000 nM |
| CCCOCCNC(=O)Cc1cn2c(C(=O)NCC(CC(C)C)c3ccccc3)cccc2n1 (stereo not shown) [Compound 230, N-(4-methyl-2-phenylpentyl)-2-{2-oxo-2-[(2-propoxyethyl)amino]ethyl}imidazo[1,2-a]pyridine-5-carboxamide] | < 2000 nM |
| CCC(COC)NC(=O)Cc1cn2c(C(=O)NCC(CC(C)C)c3ccccc3)cccc2n1 (stereo not shown) [Compound 231, 2-(2-{[1-(methoxymethyl)propyl]amino}-2-oxoethyl)-N-(4-methyl-2-phenylpentyl) imidazo [1,2-a]pyridine-5-carboxamide] | < 2000 nM |
| CC(C)CC(CNC(=O)c1cccc2nc(CC(=O)NC(C)C(N)=O)cn12)c1ccccc1 (stereo not shown) [Compound 235, 2-{2-[(2-amino-1-methyl-2-oxoethyl)amino]-2-oxoethyl}-N-(4-methyl-2-phenylpentyl)imidazo [1,2-a]pyridine-5-carboxamide] | < 2000 nM |
| CC(C)CC(CNC(=O)c1cccc2nc(CC(=O)N3CCCC(C(F)(F)F)C3)cn12)c1ccccc1 (stereo not shown) [Compound 238, N-(4-methyl-2-phenylpentyl)-2-{2-oxo-2-[3-(trifluoromethyl)piperidin-1-yl]ethyl}imidazo [1,2-a]pyridine-5-carboxamide] | < 2000 nM |
| COC1CCN(C(=O)Cc2cn3c(C(=O)NCC(CC(C)C)c4ccccc4)cccc3n2)CC1 (stereo not shown) [Compound 239, 2-[2-(4-methoxypiperidin-1-yl)-2-oxoethyl]-N-(4-methyl-2-phenylpentyl)imidazo [1,2-a]pyridine-5-carboxamide] | < 2000 nM |
| COCC1CCCN(C(=O)Cc2cn3c(C(=O)NCC(CC(C)C)c4ccccc4)cccc3n2)C1 (stereo not shown) [Compound 240, 2-{2-[3-(methoxymethyl)piperidin-1-yl]-2-oxoethyl}-N-(4-methyl-2-phenylpentyl)imidazo [1,2-a]pyridine-5-carboxamide] | < 2000 nM |
| COCC1CCCCN1C(=O)Cc1cn2c(C(=O)NCC(CC(C)C)c3ccccc3)cccc2n1 (stereo not shown) [Compound 241, 2-{2-[2-(methoxymethyl)piperidin-1-yl]-2-oxoethyl}-N-(4-methyl-2-phenylpentyl)imidazo [1,2-a]pyridine-5-carboxamide] | < 2000 nM |
| CC(C)CC(CNC(=O)c1cccc2nc(CC(=O)N3CCCC3)cn12)c1ccccc1 (stereo not shown) [Compound 242, N-(4-methyl-2-phenylpentyl)-2-(2-oxo-2-pyrrolidin-1-ylethyl)imidazo[1,2-a]pyridine-5-carboxamide] | < 2000 nM |
| CC(C)CC(CNC(=O)c1cccc2nc(CC(=O)N3CCCCC3)cn12)c1ccccc1 (stereo not shown) [Compound 243, N-(4-methyl-2-phenylpentyl)-2-(2-oxo-2-piperidin-1-ylethyl)imidazo[1,2-a]pyridine-5-carboxamide] | < 2000 nM |
| CC(C)CC(CNC(=O)c1cccc2nc(CC(=O)N3CCCC(C)(C)C3)cn12)c1ccccc1 (stereo not shown) [Compound 244, 2-[2-(3,3-dimethylpiperidin-1-yl)-2-oxoethyl]-N-(4-methyl-2-phenylpentyl)imidazo [1,2-a]pyridine-5-carboxamide] | < 2000 nM |
| CCCN(C)C(=O)Cc1cn2c(C(=O)NCC(CC(C)C)c3ccccc3)cccc2n1 (stereo not shown) [Compound 246, N-(4-methyl-2-phenylpentyl)-2-{2-[methyl(propyl)amino]-2-oxoethyl)imidazo[1,2-a]pyridine-5-carboxamide] | < 2000 nM |
| N[C@@H]1CCN(Cc2cn3c(C(=O)NCCC45CC6CC(CC(C6)C4)C5)cccc3n2)C1 [Compound 248, N-(2-adamantan-1-ylethyl)-2-{[(3R)-3-aminopyrrolidin-1-yl]methyl}imidazo[1,2-a]pyridine-5-carboxamide] | < 2000 nM |
| CC1(C)C2CC[C@@H](CNC(=O)c3cccc4nc(CN5CC[C@@H](N)C5)cn34)C1C2 (stereo partly drawn) [Compound 249, 2-{[(3R)-3-aminopyrrolidin-1-yl]methyl}-N-{[(2R)-6,6-dimethylbicyclo[3.1.1]hept-2-yl]methyl}imidazo[1,2-a]pyridine-5-carboxamide] | < 2000 nM |
